Test system: 354836-022-R-J1-PDC multicell spheroid viability
Assay: Anticancer human tumor 354836-022-R-J1-PDC patient-derived head and neck squamous cell carcinoma cell line growth inhibition [PI3K]
Details: for IC50: curve of first compound; for viability, T/C: stronger effect = lower value
How it was run: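 Three cell types, namely tumor cells, endothelial cells and mesenchymal stem cells, formed each spheroid. Combinations with four PI3K inhibitors were screened at clinically achievable concentrations decreasing by half-log, and spheroid viability was recorded.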

[1] = second compound 0.00316 µM, first compound 0.000316 µM
[2] = second compound 0.00316 µM, first compound 0.001 µM
[3] = second compound 0.00316 µM, first compound 0.00316 µM
[4] = second compound 0.00316 µM, first compound 0.01 µM
[5] = second compound 0.00316 µM, first compound 0.0316 µM
[6] = second compound 0.00316 µM, first compound 0.1 µM
[7] = second compound 0.01 µM, first compound 0.000316 µM
[8] = second compound 0.01 µM, first compound 0.001 µM
[9] = second compound 0.01 µM, first compound 0.00316 µM
[10] = second compound 0.01 µM, first compound 0.01 µM
[11] = second compound 0.01 µM, first compound 0.0316 µM
[12] = second compound 0.01 µM, first compound 0.1 µM
[13] = second compound 0.0316 µM, first compound 0.000316 µM
[14] = second compound 0.0316 µM, first compound 0.001 µM
[15] = second compound 0.0316 µM, first compound 0.00316 µM
[16] = second compound 0.0316 µM, first compound 0.01 µM
[17] = second compound 0.0316 µM, first compound 0.0316 µM
[18] = second compound 0.0316 µM, first compound 0.1 µM
[19] = second compound 0.1 µM, first compound 0.000316 µM
[20] = second compound 0.1 µM, first compound 0.001 µM
[21] = second compound 0.1 µM, first compound 0.00316 µM
[22] = second compound 0.1 µM, first compound 0.01 µM
[23] = second compound 0.1 µM, first compound 0.0316 µM
[24] = second compound 0.1 µM, first compound 0.1 µM
[25] = second compound 0.316 µM, first compound 0.000316 µM
[26] = second compound 0.316 µM, first compound 0.001 µM
[27] = second compound 0.316 µM, first compound 0.00316 µM
[28] = second compound 0.316 µM, first compound 0.01 µM
[29] = second compound 0.316 µM, first compound 0.0316 µM
[30] = second compound 0.316 µM, first compound 0.1 µM
[31] = second compound 1 µM, first compound 0.000316 µM
[32] = second compound 1 µM, first compound 0.001 µM
[33] = second compound 1 µM, first compound 0.00316 µM
[34] = second compound 1 µM, first compound 0.01 µM
[35] = second compound 1 µM, first compound 0.0316 µM
[36] = second compound 1 µM, first compound 0.1 µM
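Note: spheroids exposed to agents for seven days before the viability read.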

## CC(=O)c1c(C)c2cnc(Nc3ccc(N4CCNCC4)cn3)nc2n(C2CCCC2)c1=O + COc1c(OCCCN2CCOCC2)ccc2c3n(c(=NC(=O)c4cnc(N)nc4)nc12)CCN3
Second compound 0.00316 µM
  IC50: > 100 nM
Second compound 0.01 µM
  IC50: > 100 nM
Second compound 0.0316 µM
  IC50: > 100 nM
Second compound 0.1 µM
  IC50: > 100 nM
Second compound 0.316 µM
  IC50: < 0.316 nM
Second compound 1 µM
  IC50: < 0.316 nM
[1]
  viability, T/C: 115%
[2]
  viability, T/C: 116%
[3]
  viability, T/C: 119%
[4]
  viability, T/C: 113%
[5]
  viability, T/C: 99.9%
[6]
  viability, T/C: 107%
[7]
  viability, T/C: 107%
[8]
  viability, T/C: 121%
[9]
  viability, T/C: 93.7%
[10]
  viability, T/C: 99.1%
[11]
  viability, T/C: 85.1%
[12]
  viability, T/C: 105%
[13]
  viability, T/C: 78.7%
[14]
  viability, T/C: 92.1%
[15]
  viability, T/C: 81.3%
[16]
  viability, T/C: 82.2%
[17]
  viability, T/C: 95.9%
[18]
  viability, T/C: 83.3%
[19]
  viability, T/C: 48.8%
[20]
  viability, T/C: 54.3%
[21]
  viability, T/C: 57.6%
[22]
  viability, T/C: 61.3%
[23]
  viability, T/C: 55.7%
[24]
  viability, T/C: 59.6%
[25]
  viability, T/C: 15.9%
[26]
  viability, T/C: 16.5%
[27]
  viability, T/C: 12.5%
[28]
  viability, T/C: 14.6%
[29]
  viability, T/C: 15.2%
[30]
  viability, T/C: 14.1%
[31]
  viability, T/C: 2.1%
[32]
  viability, T/C: 1.43%
[33]
  viability, T/C: 1.73%
[34]
  viability, T/C: 2.18%
[35]
  viability, T/C: 2.06%
[36]
  viability, T/C: 1.39%

## CC(C)n1nc(-c2ccc3oc(N)nc3c2)c2c(N)ncnc21 + COc1c(OCCCN2CCOCC2)ccc2c3n(c(=NC(=O)c4cnc(N)nc4)nc12)CCN3
Second compound 0.00316 µM
  IC50: 11.4 nM
Second compound 0.01 µM
  IC50: 10.7 nM
Second compound 0.0316 µM
  IC50: 9.09 nM
Second compound 0.1 µM
  IC50: < 0.316 nM
Second compound 0.316 µM
  IC50: < 0.316 nM
Second compound 1 µM
  IC50: < 0.316 nM
[1]
  viability, T/C: 103%
[2]
  viability, T/C: 70.8%
[3]
  viability, T/C: 77.9%
[4]
  viability, T/C: 50.9%
[5]
  viability, T/C: 33%
[6]
  viability, T/C: 3.49%
[7]
  viability, T/C: 93.3%
[8]
  viability, T/C: 86.8%
[9]
  viability, T/C: 67.7%
[10]
  viability, T/C: 52.3%
[11]
  viability, T/C: 28.3%
[12]
  viability, T/C: 3.55%
[13]
  viability, T/C: 67%
[14]
  viability, T/C: 70.8%
[15]
  viability, T/C: 61.7%
[16]
  viability, T/C: 49%
[17]
  viability, T/C: 23.5%
[18]
  viability, T/C: 2.77%
[19]
  viability, T/C: 49%
[20]
  viability, T/C: 48.2%
[21]
  viability, T/C: 36.4%
[22]
  viability, T/C: 27.4%
[23]
  viability, T/C: 11.9%
[24]
  viability, T/C: 2.07%
[25]
  viability, T/C: 16.2%
[26]
  viability, T/C: 9.69%
[27]
  viability, T/C: 8.47%
[28]
  viability, T/C: 10.1%
[29]
  viability, T/C: 3.38%
[30]
  viability, T/C: 0.76%
[31]
  viability, T/C: 1.52%
[32]
  viability, T/C: 1.5%
[33]
  viability, T/C: 1.64%
[34]
  viability, T/C: 1.22%
[35]
  viability, T/C: 0.82%
[36]
  viability, T/C: 0.62%

## CCCS(=O)(=O)Nc1ccc(F)c(C(=O)c2c[nH]c3ncc(-c4ccc(Cl)cc4)cc23)c1F + COc1c(OCCCN2CCOCC2)ccc2c3n(c(=NC(=O)c4cnc(N)nc4)nc12)CCN3
Second compound 0.00316 µM
  IC50: 5870 nM
Second compound 0.01 µM
  IC50: 5890 nM
Second compound 0.0316 µM
  IC50: 4280 nM
Second compound 0.1 µM
  IC50: < 31.6 nM
Second compound 0.316 µM
  IC50: < 31.6 nM
Second compound 1 µM
  IC50: < 31.6 nM
[5]
  viability, T/C: 99.6%
[6]
  viability, T/C: 96%
Second compound 0.00316 µM, first compound 0.316 µM
  viability, T/C: 97.8%
Second compound 0.00316 µM, first compound 1 µM
  viability, T/C: 108%
Second compound 0.00316 µM, first compound 3.16 µM
  viability, T/C: 86.4%
Second compound 0.00316 µM, first compound 10 µM
  viability, T/C: 18.6%
[11]
  viability, T/C: 85.1%
[12]
  viability, T/C: 93.7%
Second compound 0.01 µM, first compound 0.316 µM
  viability, T/C: 93.7%
Second compound 0.01 µM, first compound 1 µM
  viability, T/C: 91.4%
Second compound 0.01 µM, first compound 3.16 µM
  viability, T/C: 86.4%
Second compound 0.01 µM, first compound 10 µM
  viability, T/C: 19.1%
[17]
  viability, T/C: 72.8%
[18]
  viability, T/C: 86.7%
Second compound 0.0316 µM, first compound 0.316 µM
  viability, T/C: 86.3%
Second compound 0.0316 µM, first compound 1 µM
  viability, T/C: 78.6%
Second compound 0.0316 µM, first compound 3.16 µM
  viability, T/C: 64%
Second compound 0.0316 µM, first compound 10 µM
  viability, T/C: 11.1%
[23]
  viability, T/C: 48.2%
[24]
  viability, T/C: 43.8%
Second compound 0.1 µM, first compound 0.316 µM
  viability, T/C: 47.1%
Second compound 0.1 µM, first compound 1 µM
  viability, T/C: 56.4%
Second compound 0.1 µM, first compound 3.16 µM
  viability, T/C: 40.7%
Second compound 0.1 µM, first compound 10 µM
  viability, T/C: 7.62%
[29]
  viability, T/C: 12.5%
[30]
  viability, T/C: 13.2%
Second compound 0.316 µM, first compound 0.316 µM
  viability, T/C: 12.3%
Second compound 0.316 µM, first compound 1 µM
  viability, T/C: 13.6%
Second compound 0.316 µM, first compound 3.16 µM
  viability, T/C: 12.4%
Second compound 0.316 µM, first compound 10 µM
  viability, T/C: 1.45%
[35]
  viability, T/C: 1.35%
[36]
  viability, T/C: 1.58%
Second compound 1 µM, first compound 0.316 µM
  viability, T/C: 2.26%
Second compound 1 µM, first compound 1 µM
  viability, T/C: 1.47%
Second compound 1 µM, first compound 3.16 µM
  viability, T/C: 1.69%
Second compound 1 µM, first compound 10 µM
  viability, T/C: 0.99%

Reference: PubChem BioAssay AID1963981 (Molecular Pharmacology Branch, DTP, NCI, 2024)
